≈ marks a conversion by molar mass, not a printed value.
system: E. coli BW25113; assay: MIC, microdilution in 96-well plates; format: cell-based; settings: Escherichia coli, BW25113, E. coli BW25113; read-out: MIC
Outline: (§1)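 Broth microdilution per CLSI guidance: each strain was diluted 1:10000 from a growing subculture into Luria-Bertani medium, and compound was serially diluted 2-fold in triplicate alongside a DMSO column. Plates were shaken at 37° C. for 16-18 hours; MIC is the lowest concentration showing no visible turbidity.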

| SMILES | MIC [µg/mL] |
| --- | --- |
| CN1C(=O)Cc2cc(S(=O)(=O)N[C@@H]3CCN(Cc4ccc(OC5CC5)cc4)C3)ccc21 [Compound 181] | > 8 |
| N#Cc1cccc(S(=O)(=O)N[C@@H]2CCN(Cc3ccc(-n4cccn4)cc3)C2)c1 [Compound 145] | > 8 |
| CN1C(=O)Cc2cc(S(=O)(=O)N[C@@H]3CCN(Cc4ccc(-c5ccccc5)cc4)C3)ccc21 [Compound 180] | > 8 |
| CC(C)Oc1ccc(CN2CC[C@@H](NS(=O)(=O)c3ccc(Cl)cn3)C2)cc1 [Compound 149] | > 8 |
| Cc1ccc(C(F)(F)F)cc1S(=O)(=O)N[C@@H]1CCN(Cc2ccc(OC(C)C)cc2)C1 [Compound 183] | > 8 |
| N#Cc1ccc(S(=O)(=O)N[C@@H]2CCN(Cc3ccc(-c4ccccc4)cc3)C2)cn1 [Compound 160] | > 8 |

system: Edwardsiella tarda; assay: MIC, microdilution in 96-well plates; format: cell-based; settings: not given
Outline: as §1

| SMILES | MIC [µg/mL] |
| --- | --- |
| CN1C(=O)Cc2cc(S(=O)(=O)N[C@@H]3CCN(Cc4ccc(OC5CC5)cc4)C3)ccc21 [Compound 181] | > 8 |
| N#Cc1cccc(S(=O)(=O)N[C@@H]2CCN(Cc3ccc(-n4cccn4)cc3)C2)c1 [Compound 145] | > 8 |
| CN1C(=O)Cc2cc(S(=O)(=O)N[C@@H]3CCN(Cc4ccc(-c5ccccc5)cc4)C3)ccc21 [Compound 180] | > 8 |
| CC(C)Oc1ccc(CN2CC[C@@H](NS(=O)(=O)c3ccc(Cl)cn3)C2)cc1 [Compound 149] | > 8 |
| Cc1ccc(C(F)(F)F)cc1S(=O)(=O)N[C@@H]1CCN(Cc2ccc(OC(C)C)cc2)C1 [Compound 183] | > 8 |
| N#Cc1ccc(S(=O)(=O)N[C@@H]2CCN(Cc3ccc(-c4ccccc4)cc3)C2)cn1 [Compound 160] | > 8 |

system: E. coli JW5503 (deltolC); assay: MIC, 20-strain panel; format: cell-based; settings: Escherichia coli, E. coli JW5503 (deltolC)
Outline: as §1

| SMILES | MIC [µg/mL] |
| --- | --- |
| CN1C(=O)Cc2cc(S(=O)(=O)N[C@@H]3CCN(Cc4ccc(OC5CC5)cc4)C3)ccc21 [Compound 181] | > 8 |
| N#Cc1cccc(S(=O)(=O)N[C@@H]2CCN(Cc3ccc(-n4cccn4)cc3)C2)c1 [Compound 145] | 8 (≈ 19.6 µM) |
| CN1C(=O)Cc2cc(S(=O)(=O)N[C@@H]3CCN(Cc4ccc(-c5ccccc5)cc4)C3)ccc21 [Compound 180] | > 8 |
| CC(C)Oc1ccc(CN2CC[C@@H](NS(=O)(=O)c3ccc(Cl)cn3)C2)cc1 [Compound 149] | > 8 |
| Cc1ccc(C(F)(F)F)cc1S(=O)(=O)N[C@@H]1CCN(Cc2ccc(OC(C)C)cc2)C1 [Compound 183] | 0.5 (≈ 1.1 µM) |
| N#Cc1ccc(S(=O)(=O)N[C@@H]2CCN(Cc3ccc(-c4ccccc4)cc3)C2)cn1 [Compound 160] | > 8 |

system: E. coli MG1655; assay: MIC, 20-strain panel; format: cell-based; settings: Escherichia coli, MG1655, E. coli MG1655; read-out: MIC
Outline: as §1

| SMILES | MIC [µg/mL] |
| --- | --- |
| CN1C(=O)Cc2cc(S(=O)(=O)N[C@@H]3CCN(Cc4ccc(OC5CC5)cc4)C3)ccc21 [Compound 181] | > 8 |
| N#Cc1cccc(S(=O)(=O)N[C@@H]2CCN(Cc3ccc(-n4cccn4)cc3)C2)c1 [Compound 145] | > 8 |
| CN1C(=O)Cc2cc(S(=O)(=O)N[C@@H]3CCN(Cc4ccc(-c5ccccc5)cc4)C3)ccc21 [Compound 180] | > 8 |
| CC(C)Oc1ccc(CN2CC[C@@H](NS(=O)(=O)c3ccc(Cl)cn3)C2)cc1 [Compound 149] | > 8 |
| Cc1ccc(C(F)(F)F)cc1S(=O)(=O)N[C@@H]1CCN(Cc2ccc(OC(C)C)cc2)C1 [Compound 183] | > 8 |
| N#Cc1ccc(S(=O)(=O)N[C@@H]2CCN(Cc3ccc(-c4ccccc4)cc3)C2)cn1 [Compound 160] | > 8 |

system: Klebsiella pneumoniae subsp. pneumoniae; assay: MIC, 20-strain panel; format: cell-based; settings: Klebsiella pneumoniae subsp. pneumoniae
Outline: as §1

| SMILES | MIC [µg/mL] |
| --- | --- |
| CN1C(=O)Cc2cc(S(=O)(=O)N[C@@H]3CCN(Cc4ccc(OC5CC5)cc4)C3)ccc21 [Compound 181] | > 8 |
| N#Cc1cccc(S(=O)(=O)N[C@@H]2CCN(Cc3ccc(-n4cccn4)cc3)C2)c1 [Compound 145] | > 8 |
| CN1C(=O)Cc2cc(S(=O)(=O)N[C@@H]3CCN(Cc4ccc(-c5ccccc5)cc4)C3)ccc21 [Compound 180] | > 8 |
| CC(C)Oc1ccc(CN2CC[C@@H](NS(=O)(=O)c3ccc(Cl)cn3)C2)cc1 [Compound 149] | > 8 |
| Cc1ccc(C(F)(F)F)cc1S(=O)(=O)N[C@@H]1CCN(Cc2ccc(OC(C)C)cc2)C1 [Compound 183] | > 8 |
| N#Cc1ccc(S(=O)(=O)N[C@@H]2CCN(Cc3ccc(-c4ccccc4)cc3)C2)cn1 [Compound 160] | > 8 |

system: Salmonella enterica subsp. enterica typhimurium; assay: MIC, 20-strain panel; format: cell-based; settings: Salmonella enterica subsp. enterica Typhimurium
Outline: as §1

| SMILES | MIC [µg/mL] |
| --- | --- |
| CN1C(=O)Cc2cc(S(=O)(=O)N[C@@H]3CCN(Cc4ccc(OC5CC5)cc4)C3)ccc21 [Compound 181] | > 8 |
| N#Cc1cccc(S(=O)(=O)N[C@@H]2CCN(Cc3ccc(-n4cccn4)cc3)C2)c1 [Compound 145] | > 8 |
| CN1C(=O)Cc2cc(S(=O)(=O)N[C@@H]3CCN(Cc4ccc(-c5ccccc5)cc4)C3)ccc21 [Compound 180] | > 8 |
| CC(C)Oc1ccc(CN2CC[C@@H](NS(=O)(=O)c3ccc(Cl)cn3)C2)cc1 [Compound 149] | > 8 |
| Cc1ccc(C(F)(F)F)cc1S(=O)(=O)N[C@@H]1CCN(Cc2ccc(OC(C)C)cc2)C1 [Compound 183] | 8 (≈ 17.5 µM) |
| N#Cc1ccc(S(=O)(=O)N[C@@H]2CCN(Cc3ccc(-c4ccccc4)cc3)C2)cn1 [Compound 160] | > 8 |

system: Shigella flexneri; assay: MIC, 20-strain panel; format: cell-based; settings: not given
Outline: as §1

| SMILES | MIC [µg/mL] |
| --- | --- |
| CN1C(=O)Cc2cc(S(=O)(=O)N[C@@H]3CCN(Cc4ccc(OC5CC5)cc4)C3)ccc21 [Compound 181] | > 8 |
| N#Cc1cccc(S(=O)(=O)N[C@@H]2CCN(Cc3ccc(-n4cccn4)cc3)C2)c1 [Compound 145] | > 8 |
| CN1C(=O)Cc2cc(S(=O)(=O)N[C@@H]3CCN(Cc4ccc(-c5ccccc5)cc4)C3)ccc21 [Compound 180] | > 8 |
| CC(C)Oc1ccc(CN2CC[C@@H](NS(=O)(=O)c3ccc(Cl)cn3)C2)cc1 [Compound 149] | > 8 |
| Cc1ccc(C(F)(F)F)cc1S(=O)(=O)N[C@@H]1CCN(Cc2ccc(OC(C)C)cc2)C1 [Compound 183] | > 8 |
| N#Cc1ccc(S(=O)(=O)N[C@@H]2CCN(Cc3ccc(-c4ccccc4)cc3)C2)cn1 [Compound 160] | > 8 |

system: Staphylococcus aureus subsp. aureus; assay: MIC, 20-strain panel; format: cell-based; settings: Staphylococcus aureus subsp. aureus, read-out: MIC
Outline: as §1

| SMILES | MIC [µg/mL] |
| --- | --- |
| CN1C(=O)Cc2cc(S(=O)(=O)N[C@@H]3CCN(Cc4ccc(OC5CC5)cc4)C3)ccc21 [Compound 181] | > 8 |
| N#Cc1cccc(S(=O)(=O)N[C@@H]2CCN(Cc3ccc(-n4cccn4)cc3)C2)c1 [Compound 145] | > 8 |
| CN1C(=O)Cc2cc(S(=O)(=O)N[C@@H]3CCN(Cc4ccc(-c5ccccc5)cc4)C3)ccc21 [Compound 180] | > 8 |
| CC(C)Oc1ccc(CN2CC[C@@H](NS(=O)(=O)c3ccc(Cl)cn3)C2)cc1 [Compound 149] | > 8 |
| Cc1ccc(C(F)(F)F)cc1S(=O)(=O)N[C@@H]1CCN(Cc2ccc(OC(C)C)cc2)C1 [Compound 183] | > 8 |
| N#Cc1ccc(S(=O)(=O)N[C@@H]2CCN(Cc3ccc(-c4ccccc4)cc3)C2)cn1 [Compound 160] | > 8 |

system: Staphylococcus epidermidis; assay: MIC, 20-strain panel; format: cell-based; settings: not given
Outline: as §1

| SMILES | MIC [µg/mL] |
| --- | --- |
| CN1C(=O)Cc2cc(S(=O)(=O)N[C@@H]3CCN(Cc4ccc(OC5CC5)cc4)C3)ccc21 [Compound 181] | > 8 |
| N#Cc1cccc(S(=O)(=O)N[C@@H]2CCN(Cc3ccc(-n4cccn4)cc3)C2)c1 [Compound 145] | > 8 |
| CN1C(=O)Cc2cc(S(=O)(=O)N[C@@H]3CCN(Cc4ccc(-c5ccccc5)cc4)C3)ccc21 [Compound 180] | > 8 |
| CC(C)Oc1ccc(CN2CC[C@@H](NS(=O)(=O)c3ccc(Cl)cn3)C2)cc1 [Compound 149] | > 8 |
| Cc1ccc(C(F)(F)F)cc1S(=O)(=O)N[C@@H]1CCN(Cc2ccc(OC(C)C)cc2)C1 [Compound 183] | > 8 |
| N#Cc1ccc(S(=O)(=O)N[C@@H]2CCN(Cc3ccc(-c4ccccc4)cc3)C2)cn1 [Compound 160] | > 8 |

system: Staphylococcus saprophyticus subsp. saprophyticus; assay: MIC, 20-strain panel; format: cell-based; settings: not given
Outline: as §1

| SMILES | MIC [µg/mL] |
| --- | --- |
| CN1C(=O)Cc2cc(S(=O)(=O)N[C@@H]3CCN(Cc4ccc(OC5CC5)cc4)C3)ccc21 [Compound 181] | > 8 |
| N#Cc1cccc(S(=O)(=O)N[C@@H]2CCN(Cc3ccc(-n4cccn4)cc3)C2)c1 [Compound 145] | > 8 |
| CN1C(=O)Cc2cc(S(=O)(=O)N[C@@H]3CCN(Cc4ccc(-c5ccccc5)cc4)C3)ccc21 [Compound 180] | > 8 |
| CC(C)Oc1ccc(CN2CC[C@@H](NS(=O)(=O)c3ccc(Cl)cn3)C2)cc1 [Compound 149] | > 8 |
| Cc1ccc(C(F)(F)F)cc1S(=O)(=O)N[C@@H]1CCN(Cc2ccc(OC(C)C)cc2)C1 [Compound 183] | > 8 |
| N#Cc1ccc(S(=O)(=O)N[C@@H]2CCN(Cc3ccc(-c4ccccc4)cc3)C2)cn1 [Compound 160] | > 8 |

system: Streptococcus agalactiae; assay: MIC, 20-strain panel; format: cell-based; settings: not given
Outline: as §1

| SMILES | MIC [µg/mL] |
| --- | --- |
| CN1C(=O)Cc2cc(S(=O)(=O)N[C@@H]3CCN(Cc4ccc(OC5CC5)cc4)C3)ccc21 [Compound 181] | > 8 |
| N#Cc1cccc(S(=O)(=O)N[C@@H]2CCN(Cc3ccc(-n4cccn4)cc3)C2)c1 [Compound 145] | > 8 |
| CN1C(=O)Cc2cc(S(=O)(=O)N[C@@H]3CCN(Cc4ccc(-c5ccccc5)cc4)C3)ccc21 [Compound 180] | > 8 |
| CC(C)Oc1ccc(CN2CC[C@@H](NS(=O)(=O)c3ccc(Cl)cn3)C2)cc1 [Compound 149] | > 8 |
| Cc1ccc(C(F)(F)F)cc1S(=O)(=O)N[C@@H]1CCN(Cc2ccc(OC(C)C)cc2)C1 [Compound 183] | > 8 |
| N#Cc1ccc(S(=O)(=O)N[C@@H]2CCN(Cc3ccc(-c4ccccc4)cc3)C2)cn1 [Compound 160] | > 8 |

system: Streptococcus pyogenes; assay: MIC, 20-strain panel; format: cell-based; settings: not given
Outline: as §1

| SMILES | MIC [µg/mL] |
| --- | --- |
| CN1C(=O)Cc2cc(S(=O)(=O)N[C@@H]3CCN(Cc4ccc(OC5CC5)cc4)C3)ccc21 [Compound 181] | > 8 |
| N#Cc1cccc(S(=O)(=O)N[C@@H]2CCN(Cc3ccc(-n4cccn4)cc3)C2)c1 [Compound 145] | > 8 |
| CN1C(=O)Cc2cc(S(=O)(=O)N[C@@H]3CCN(Cc4ccc(-c5ccccc5)cc4)C3)ccc21 [Compound 180] | > 8 |
| CC(C)Oc1ccc(CN2CC[C@@H](NS(=O)(=O)c3ccc(Cl)cn3)C2)cc1 [Compound 149] | > 8 |
| Cc1ccc(C(F)(F)F)cc1S(=O)(=O)N[C@@H]1CCN(Cc2ccc(OC(C)C)cc2)C1 [Compound 183] | > 8 |
| N#Cc1ccc(S(=O)(=O)N[C@@H]2CCN(Cc3ccc(-c4ccccc4)cc3)C2)cn1 [Compound 160] | > 8 |
